Activity calls are given as the source filed them. The rule behind the calls is not given here.
Legend:
[1] = target: Bromodomain-containing protein 7 (Homo sapiens) (UniProt Q9NPI1); test: Inhibition of human partial length BRD7 (L125 to R254 residues) expressed in mammalian expression system by BROMOscan assay
[2] = target: Protein polybromo-1 (Homo sapiens) (UniProt Q86U86); test: Inhibition of human partial length PBRM1 bromodomain 1 (S178 to E291 residues) expressed in bacterial expression system by BROMOscan assay
[3] = target: Transcription initiation factor TFIID subunit 1 (Homo sapiens) (UniProt P21675); test: Inhibition of human partial length TAF1 bromodomain 2 (D1521 to D1656 residues) expressed in bacterial expression system by BROMOscan assay
[4] = target: Transcription intermediary factor 1-alpha (Homo sapiens) (UniProt O15164); test: Inhibition of human partial length TRIM24 (P790 to P977 residues) expressed in bacterial expression system by BROMOscan assay
[5] = target: ATPase family AAA domain-containing protein 2 (Homo sapiens) (UniProt Q6PL18); test: Inhibition of human partial length ATAD2A (Q981 to R1108 residues) expressed in bacterial expression system by BROMOscan assay
[6] = target: Protein polybromo-1 (Homo sapiens) (UniProt Q86U86); test: Inhibition of human partial length PBRM1 bromodomain 5 (S645 to D766 residues) expressed in bacterial expression system by BROMOscan assay
[7] = target: Nucleosome-remodeling factor subunit BPTF (Homo sapiens) (UniProt Q12830); test: Inhibition of human partial length FALZ (S2791 to H2911 residues) expressed in bacterial expression system by BROMOscan assay
[8] = Renal clearance in Wistar Han rat at 1 mg/kg administered as iv infusion for 1 hr and measured up to 24 hrs by LC-MS/MS analysis; format: ADME, organism-based; details: in vivo
[9] = Oral bioavailability in Wistar Han rat at 3 mg/kg measured up to 24 hrs by LC-MS/MS analysis; format: ADME, organism-based; details: in vivo
[10] = target: CREB-binding protein (Homo sapiens) (UniProt Q92793); test: Inhibition of human partial length CREBBP (R1081 to G1197 residues) expressed in bacterial expression system by BROMOscan assay
[11] = target: SWI/SNF-related matrix-associated actin-dependent regulator of chromatin subfamily A member 4 (Homo sapiens) (UniProt P51532); test: Inhibition of human partial length SMARCA4 (A1448 to S1575 residues) expressed in bacterial expression system by BROMOscan assay
[12] = Permeability of compound by artificial membrane assay; format: ADME; details: PAMPA; read-out: permeability
[13] = Half life in Wistar Han rat at 1 mg/kg administered as iv infusion for 1 hr and measured up to 24 hrs by LC-MS/MS analysis; format: ADME, organism-based; details: in vivo

Chain of Protein polybromo-1 (Homo sapiens) (Q86U86 whole entry, the tested form may be a part): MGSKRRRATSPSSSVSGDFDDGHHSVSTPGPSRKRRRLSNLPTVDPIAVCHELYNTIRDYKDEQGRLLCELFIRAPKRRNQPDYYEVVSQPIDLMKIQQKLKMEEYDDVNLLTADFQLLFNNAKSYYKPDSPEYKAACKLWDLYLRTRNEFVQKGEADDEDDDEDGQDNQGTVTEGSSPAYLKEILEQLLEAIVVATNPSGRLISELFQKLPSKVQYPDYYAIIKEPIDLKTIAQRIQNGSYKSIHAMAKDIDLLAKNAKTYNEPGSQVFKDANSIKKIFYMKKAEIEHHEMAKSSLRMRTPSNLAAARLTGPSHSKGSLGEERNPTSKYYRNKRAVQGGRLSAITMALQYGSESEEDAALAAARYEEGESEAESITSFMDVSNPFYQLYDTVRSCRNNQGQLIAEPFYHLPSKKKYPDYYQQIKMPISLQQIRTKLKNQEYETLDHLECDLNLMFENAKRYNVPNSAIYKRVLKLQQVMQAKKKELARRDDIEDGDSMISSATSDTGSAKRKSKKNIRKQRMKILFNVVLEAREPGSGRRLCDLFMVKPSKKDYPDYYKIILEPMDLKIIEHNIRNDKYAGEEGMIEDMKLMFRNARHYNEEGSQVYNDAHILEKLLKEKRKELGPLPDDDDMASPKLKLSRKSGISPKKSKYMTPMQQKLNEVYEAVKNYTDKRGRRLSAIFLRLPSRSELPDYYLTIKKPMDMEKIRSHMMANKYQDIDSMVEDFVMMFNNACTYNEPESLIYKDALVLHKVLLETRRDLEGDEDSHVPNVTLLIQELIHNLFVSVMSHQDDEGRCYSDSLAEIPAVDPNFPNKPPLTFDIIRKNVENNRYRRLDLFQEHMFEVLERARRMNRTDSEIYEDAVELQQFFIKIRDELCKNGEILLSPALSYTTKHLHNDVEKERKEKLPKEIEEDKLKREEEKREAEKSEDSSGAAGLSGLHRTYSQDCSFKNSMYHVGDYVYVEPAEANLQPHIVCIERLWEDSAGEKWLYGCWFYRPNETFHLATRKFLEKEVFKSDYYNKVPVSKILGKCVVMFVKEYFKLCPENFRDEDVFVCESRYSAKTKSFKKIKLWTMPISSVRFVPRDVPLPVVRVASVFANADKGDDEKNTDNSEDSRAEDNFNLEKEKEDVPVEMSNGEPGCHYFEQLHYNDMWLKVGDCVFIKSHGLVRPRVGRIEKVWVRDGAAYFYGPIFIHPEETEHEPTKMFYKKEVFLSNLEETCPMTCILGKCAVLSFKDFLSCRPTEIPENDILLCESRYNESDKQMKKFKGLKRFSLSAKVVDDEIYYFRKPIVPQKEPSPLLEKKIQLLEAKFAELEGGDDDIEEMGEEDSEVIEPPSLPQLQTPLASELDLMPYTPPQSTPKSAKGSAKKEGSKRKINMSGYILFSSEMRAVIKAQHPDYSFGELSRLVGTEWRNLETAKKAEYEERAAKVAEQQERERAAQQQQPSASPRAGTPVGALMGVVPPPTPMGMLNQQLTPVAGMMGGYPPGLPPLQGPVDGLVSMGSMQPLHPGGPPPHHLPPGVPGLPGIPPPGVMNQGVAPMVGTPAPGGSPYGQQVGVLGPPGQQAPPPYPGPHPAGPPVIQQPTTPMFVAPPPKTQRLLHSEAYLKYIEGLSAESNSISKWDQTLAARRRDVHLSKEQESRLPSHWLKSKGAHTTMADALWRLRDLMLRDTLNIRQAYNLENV
Chain of Bromodomain-containing protein 7 (Homo sapiens) (Q9NPI1 whole entry, the tested form may be a part): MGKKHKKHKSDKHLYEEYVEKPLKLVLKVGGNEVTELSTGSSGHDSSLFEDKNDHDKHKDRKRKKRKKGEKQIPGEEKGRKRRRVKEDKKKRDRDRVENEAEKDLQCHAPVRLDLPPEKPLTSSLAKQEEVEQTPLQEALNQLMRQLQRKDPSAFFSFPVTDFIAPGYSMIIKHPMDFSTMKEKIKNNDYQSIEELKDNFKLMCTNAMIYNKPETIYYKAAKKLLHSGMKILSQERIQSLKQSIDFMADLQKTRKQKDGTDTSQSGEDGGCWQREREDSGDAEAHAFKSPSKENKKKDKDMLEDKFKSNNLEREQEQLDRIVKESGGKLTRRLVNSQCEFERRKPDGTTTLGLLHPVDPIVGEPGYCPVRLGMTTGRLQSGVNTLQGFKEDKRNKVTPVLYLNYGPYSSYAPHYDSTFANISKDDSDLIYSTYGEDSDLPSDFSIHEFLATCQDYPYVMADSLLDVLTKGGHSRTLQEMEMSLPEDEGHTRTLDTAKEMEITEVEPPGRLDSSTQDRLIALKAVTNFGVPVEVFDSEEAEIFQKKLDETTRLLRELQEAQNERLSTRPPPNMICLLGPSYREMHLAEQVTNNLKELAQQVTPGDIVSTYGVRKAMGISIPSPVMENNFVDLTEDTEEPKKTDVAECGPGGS
Chain of SWI/SNF-related matrix-associated actin-dependent regulator of chromatin subfamily A member 4 (Homo sapiens) (P51532 whole entry, the tested form may be a part): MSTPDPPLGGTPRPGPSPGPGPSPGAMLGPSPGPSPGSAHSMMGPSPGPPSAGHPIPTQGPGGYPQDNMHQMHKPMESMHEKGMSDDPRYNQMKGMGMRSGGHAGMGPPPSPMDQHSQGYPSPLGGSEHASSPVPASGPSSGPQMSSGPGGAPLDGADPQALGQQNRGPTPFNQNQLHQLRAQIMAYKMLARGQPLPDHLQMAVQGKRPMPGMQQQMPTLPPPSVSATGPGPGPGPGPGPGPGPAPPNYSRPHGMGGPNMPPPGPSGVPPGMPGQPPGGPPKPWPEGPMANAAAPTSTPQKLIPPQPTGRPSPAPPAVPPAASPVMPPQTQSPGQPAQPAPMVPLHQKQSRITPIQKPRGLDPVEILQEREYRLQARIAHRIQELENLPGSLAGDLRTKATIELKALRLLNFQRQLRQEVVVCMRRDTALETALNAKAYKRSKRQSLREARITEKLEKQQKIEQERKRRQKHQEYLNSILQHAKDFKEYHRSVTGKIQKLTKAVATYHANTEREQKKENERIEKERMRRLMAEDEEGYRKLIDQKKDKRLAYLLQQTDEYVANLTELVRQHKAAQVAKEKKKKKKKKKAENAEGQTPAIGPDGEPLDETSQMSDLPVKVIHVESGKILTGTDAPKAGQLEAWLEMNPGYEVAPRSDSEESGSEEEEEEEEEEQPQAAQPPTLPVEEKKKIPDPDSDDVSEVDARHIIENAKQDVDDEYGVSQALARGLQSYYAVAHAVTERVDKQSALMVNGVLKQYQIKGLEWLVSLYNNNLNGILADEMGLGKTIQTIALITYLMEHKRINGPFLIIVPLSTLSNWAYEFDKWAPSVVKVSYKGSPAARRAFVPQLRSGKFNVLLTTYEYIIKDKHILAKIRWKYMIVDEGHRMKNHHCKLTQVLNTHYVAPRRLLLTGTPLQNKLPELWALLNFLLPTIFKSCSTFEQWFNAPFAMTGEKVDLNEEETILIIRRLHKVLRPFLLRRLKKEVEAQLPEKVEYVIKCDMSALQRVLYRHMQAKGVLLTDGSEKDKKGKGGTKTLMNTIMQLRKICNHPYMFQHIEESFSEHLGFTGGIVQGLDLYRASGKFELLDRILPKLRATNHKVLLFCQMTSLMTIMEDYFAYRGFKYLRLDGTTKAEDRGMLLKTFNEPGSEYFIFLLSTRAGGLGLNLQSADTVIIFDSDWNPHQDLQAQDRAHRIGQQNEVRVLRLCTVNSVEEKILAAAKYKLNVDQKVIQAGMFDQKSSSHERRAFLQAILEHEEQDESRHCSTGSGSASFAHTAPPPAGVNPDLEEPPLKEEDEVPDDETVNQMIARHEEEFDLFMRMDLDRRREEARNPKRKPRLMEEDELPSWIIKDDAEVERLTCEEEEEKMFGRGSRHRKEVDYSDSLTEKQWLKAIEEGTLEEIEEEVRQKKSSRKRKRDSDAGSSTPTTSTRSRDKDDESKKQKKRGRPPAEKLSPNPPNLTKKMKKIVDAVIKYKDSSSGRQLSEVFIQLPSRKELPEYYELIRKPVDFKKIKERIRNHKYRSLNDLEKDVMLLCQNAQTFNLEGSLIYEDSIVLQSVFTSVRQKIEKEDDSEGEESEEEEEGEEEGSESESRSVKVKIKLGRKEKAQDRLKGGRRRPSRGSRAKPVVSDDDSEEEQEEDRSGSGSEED
Chain of Transcription intermediary factor 1-alpha (Homo sapiens) (O15164 whole entry, the tested form may be a part): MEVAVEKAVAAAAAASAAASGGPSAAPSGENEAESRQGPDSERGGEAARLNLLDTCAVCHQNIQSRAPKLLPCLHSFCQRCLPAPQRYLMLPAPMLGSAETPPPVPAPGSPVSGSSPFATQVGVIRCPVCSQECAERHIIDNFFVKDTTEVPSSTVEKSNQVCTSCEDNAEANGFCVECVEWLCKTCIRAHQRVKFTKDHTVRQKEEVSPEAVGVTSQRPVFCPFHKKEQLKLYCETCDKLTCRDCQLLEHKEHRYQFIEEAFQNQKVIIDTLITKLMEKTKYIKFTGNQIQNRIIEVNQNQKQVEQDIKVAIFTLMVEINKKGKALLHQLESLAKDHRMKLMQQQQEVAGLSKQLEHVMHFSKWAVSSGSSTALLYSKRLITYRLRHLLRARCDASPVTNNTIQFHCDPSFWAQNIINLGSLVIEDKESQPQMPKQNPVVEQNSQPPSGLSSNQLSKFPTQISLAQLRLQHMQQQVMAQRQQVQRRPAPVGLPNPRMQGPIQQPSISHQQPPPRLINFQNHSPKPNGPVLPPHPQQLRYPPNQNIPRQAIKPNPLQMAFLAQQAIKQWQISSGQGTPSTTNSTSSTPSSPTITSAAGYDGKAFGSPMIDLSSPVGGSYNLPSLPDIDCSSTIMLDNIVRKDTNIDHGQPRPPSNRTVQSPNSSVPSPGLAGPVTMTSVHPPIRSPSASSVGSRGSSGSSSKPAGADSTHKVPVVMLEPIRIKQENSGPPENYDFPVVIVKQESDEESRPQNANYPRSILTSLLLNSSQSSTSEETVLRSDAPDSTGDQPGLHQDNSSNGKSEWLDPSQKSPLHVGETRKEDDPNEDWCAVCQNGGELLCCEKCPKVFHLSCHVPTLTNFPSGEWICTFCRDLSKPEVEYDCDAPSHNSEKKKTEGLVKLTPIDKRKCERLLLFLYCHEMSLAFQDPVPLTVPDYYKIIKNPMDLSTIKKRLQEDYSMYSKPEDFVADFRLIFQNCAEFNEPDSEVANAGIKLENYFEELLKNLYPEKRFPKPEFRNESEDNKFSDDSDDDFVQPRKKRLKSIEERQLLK

What does the source list for `CNC(=O)c1cc(C(=O)N[C@@H]2[C@@H]3COC[C@@H]32)cc2c1O[C@H](CF)[C@H]2c1ccccc1`?
inhibition [1]: inactive; inhibition [2]: inactive; inhibition [3]: inactive; inhibition [4]: inactive; inhibition [5]: inactive; inhibition [6]: inactive; inhibition [7]: inactive; CL renal [8]: 4 mL/min/kg; bioavailability [9]: 48%; inhibition [10]: inactive; inhibition [11]: inactive; Papp [12]: 16.5 ×10⁻⁶ cm/s; half-life [13]: 36 min

Source: ChEMBL document CHEMBL4619816, “GSK973 Is an Inhibitor of the Second Bromodomains (BD2s) of the Bromodomain and Extra-Terminal (BET) Family” (ACS Med Chem Lett, 2020)
